pEC50, pIC50: −log10 of the molar value.
Key:
human DGKα = target: T1, human DGKα (Homo sapiens, UniProt P23743); experiment: DGKα Biochemical Activity Assay (ADP-Glo);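 also: recombinant enzyme converting diacylglycerol in lipid micelles with ATP, ADP formed detected by luminescence, IC50 from a four-parameter nonlinear fit, geometric mean across experiments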
T1 construct: purchased Carna Biosciences'; inferred from the same paragraph's 'obtained from Carna Biosciences')

[1] = test system: Jurkat NFκB-luciferase cells; experiment: Jurkat NFκB-Luciferase Assay; type: cell-based; conditions: Homo sapiens; Jurkat NFκB-luciferase cells activated with anti-CD3 antibody (OKT3), 2.5 hrs at 37° C., One-Glo Ex; geometric mean; read-out: DGK NFKb Luciferase EC50;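 also: bioluminescence read-out normalized to DMSO basal activation and to maximum enhancement at 1 µM compound, rising signal indicating stronger T-cell activation through DGKα inhibition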
Experimental: The activity of compounds was tested in a cell based NFκB reporter assay. Jurkat cells that are stably expressing a luciferase reporter construct under the transcriptional control of a NFκB reporter element were activated with an anti-CD3 antibody and luciferase levels were measured with a bioluminescence readout.
The day after, the excess antibody was washed out five times with 100 ul/well of assay medium (RPMI supplemented with 10% fetal bovine serum) using a Biotek EL406 instrument and leaving 20 µl of residual volume in each well. Jurkat NFκB-luciferase cells (Promega #) were harvested and diluted to 1 million cells/ml in assay medium. Sixty nanoliters of test compound dissolved in DMSO at various concentrations were dispensed into 384-well v-bottom polypropylene plates (Greiner) using a Labcyte Echo instrument. Thirty microliters of medium containing the Jurkat NFκB-luciferase cells were then dispensed using a Biotek MicroFlo instrument in each well of the compound-containing plate. The medium/cell/compound mixture was mixed with a Bravo instrument and 20 ul/well of the mixture was transferred to the anti-CD3-coated plate. The assay mixture was then incubated for 2.5 hrs at 37° C. followed by equilibration at 25° C. for 30 min. Forty microliters of One-Glo Ex (Promega) was then added to the assay mixture and luciferase activity was read on a Envision plate reader 7 minutes later.
Bioluminescence data were normalized based on maximum enhancement (1 micromolar of compound) and on basal activation (DMSO) controls. Least squares curve fittings were performed using a four-parameter variable slope nonlinear regression model. […] EC50 values from multiple experiments were averaged by geometric mean and the standard deviation was calculated.

T1 sequence (P23743 whole entry): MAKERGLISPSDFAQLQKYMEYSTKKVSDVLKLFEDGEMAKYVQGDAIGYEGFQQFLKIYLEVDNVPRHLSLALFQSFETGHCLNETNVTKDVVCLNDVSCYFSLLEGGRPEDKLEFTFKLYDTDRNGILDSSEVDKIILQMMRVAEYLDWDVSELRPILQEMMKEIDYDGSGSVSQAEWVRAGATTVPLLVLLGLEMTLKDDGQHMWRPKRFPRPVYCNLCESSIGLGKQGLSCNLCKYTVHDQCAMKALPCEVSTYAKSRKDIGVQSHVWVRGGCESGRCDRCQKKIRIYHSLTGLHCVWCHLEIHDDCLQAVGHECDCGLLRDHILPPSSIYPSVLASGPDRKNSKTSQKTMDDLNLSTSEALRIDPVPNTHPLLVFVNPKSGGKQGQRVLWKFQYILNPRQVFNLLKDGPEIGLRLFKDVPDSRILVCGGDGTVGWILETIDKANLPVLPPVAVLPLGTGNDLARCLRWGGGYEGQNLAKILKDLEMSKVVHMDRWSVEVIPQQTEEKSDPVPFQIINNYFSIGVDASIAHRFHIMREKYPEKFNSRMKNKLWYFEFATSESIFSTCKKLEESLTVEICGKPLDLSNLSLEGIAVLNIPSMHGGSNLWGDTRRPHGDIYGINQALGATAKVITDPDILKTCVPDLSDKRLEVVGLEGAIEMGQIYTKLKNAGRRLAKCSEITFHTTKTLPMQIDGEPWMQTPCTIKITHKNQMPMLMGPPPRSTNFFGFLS

SMILES | pIC50 (human DGKα) | pEC50 [1]
O=c1nc(N2CCCCc3c(Br)cncc32)c2cc(F)ccc2[nH]1 [Example 163, 4-(6-bromo-2,3,4,5-tetrahydro-1H-pyrido[3,4-b]azepin-1-yl)-6-fluoroquinazolin-2(1H)-one] | 7.31 | 8.05
CC1(C#Cc2cncc3c2CCCCN3c2nc(=O)[nH]c3ccc(F)cc23)CC1 [Example 164, 6-fluoro-4-(6-((1-methylcyclopropyl)ethynyl)-2,3,4,5-tetrahydro-1H-pyrido[3,4-b]azepin-1-yl)quinazolin-2(1H)-one] | 8.25 | 9.16
O=c1nc(N2CCCCc3c(C#CC4(C(F)(F)F)CC4)cncc32)c2cc(F)ccc2[nH]1 [Example 165, 6-fluoro-4-(6-((1-(trifluoromethyl)cyclopropyl)ethynyl)-2,3,4,5-tetrahydro-1H-pyrido[3,4-b]azepin-1-yl)quinazolin-2(1H)-one] | 7.91 | 9.20
[2H]C([2H])([2H])n1c(=O)nc(N2CCCc3c(C#CC4CCN(C)C4)cccc32)c2c(F)cccc21 (stereo not drawn) [Example 166, 5-fluoro-4-[5-[2-(1-methylpyrrolidin-3-yl)ethynyl]-3,4-dihydro-2H-quinolin-1-yl]-1-(trideuteriomethyl)quinazolin-2-one] | 7.15 | 8.17
[2H]C([2H])([2H])n1c(=O)nc(N2CCOCc3c(C#CC4CCCN4C)cccc32)c2c(F)cccc21 (stereo not drawn) [Example 167, 5-fluoro-4-[6-[2-(1-methylpyrrolidin-2-yl)ethynyl]-3,5-dihydro-2H-4,1-benzoxazepin-1-yl]-1-(trideuteriomethyl)quinazolin-2-one] | 7.73 | 7.96
[2H]C([2H])([2H])n1c(=O)nc(N2CCOCc3c(C#CC4CCCN4CC(F)F)cccc32)c2c(F)cccc21 (stereo not drawn) [Example 168, 4-[6-[2-[1-(2,2-difluoroethyl)pyrrolidin-2-yl]ethynyl]-3,5-dihydro-2H-4,1-benzoxazepin-1-yl]-5-fluoro-1-(trideuteriomethyl)quinazolin-2-one] | 8.27 | 8.81
[2H]C([2H])([2H])n1c(=O)nc(N2CCOCc3c(C#CC4CCCN4C(=O)C4CC4)cccc32)c2c(F)cccc21 (stereo not drawn) [Example 169, 4-[6-[2-[1-(cyclopropanecarbonyl)pyrrolidin-2-yl]ethynyl]-3,5-dihydro-2H-4,1-benzoxazepin-1-yl]-5-fluoro-1-(trideuteriomethyl)quinazolin-2-one] | 8.04 | 7.89
[2H]C([2H])([2H])n1c(=O)nc(N2CCOCc3c(C#CC4(C(F)(F)F)CCN(C)C4)cccc32)c2c(F)cccc21 (stereo not drawn) [Example 170, 5-fluoro-4-[6-[2-[1-methyl-3-(trifluoromethyl)pyrrolidin-3-yl]ethynyl]-3,5-dihydro-2H-4,1-benzoxazepin-1-yl]-1-(trideuteriomethyl)quinazolin-2-one] | 7.59 | 8.43
[2H]C([2H])([2H])n1c(=O)nc(N2CCOCc3c(C#CC4(C(F)(F)F)CCN(C5COC5)C4)cccc32)c2c(F)cccc21 (stereo not drawn) [Example 171, 5-fluoro-4-[6-[2-[1-(oxetan-3-yl)-3-(trifluoromethyl)pyrrolidin-3-yl]ethynyl]-3,5-dihydro-2H-4,1-benzoxazepin-1-yl]-1-(trideuteriomethyl)quinazolin-2-one] | 7.94 | 8.30
[2H]C([2H])([2H])n1c(=O)nc(N2CCOCc3c(C#CC4(C(F)(F)F)CCN(CC(F)F)C4)cccc32)c2c(F)cccc21 (stereo not drawn) [Example 172, 4-[6-[2-[1-(2,2-difluoroethyl)-3-(trifluoromethyl)pyrrolidin-3-yl]ethynyl]-3,5-dihydro-2H-4,1-benzoxazepin-1-yl]-5-fluoro-1-(trideuteriomethyl)quinazolin-2-one] | 8.09 | 8.85
[2H]C([2H])([2H])n1c(=O)nc(N2CCOCc3c(C#CC45CC(CN4CC(F)F)C5)cccc32)c2c(F)cccc21 [Example 173, 4-[6-[2-[2-(2,2-difluoroethyl)-2-azabicyclo[2.1.1]hexan-1-yl]ethynyl]-3,5-dihydro-2H-4,1-benzoxazepin-1-yl]-5-fluoro-1-(trideuteriomethyl)quinazolin-2-one] | 9.14 | 9.40
[2H]C([2H])([2H])n1c(=O)nc(N2CCOCc3c(C#CC45CC(CN4C)C5)cccc32)c2c(F)cccc21 [Example 174, 5-fluoro-4-[6-[2-(2-methyl-2-azabicyclo[2.1.1]hexan-1-yl)ethynyl]-3,5-dihydro-2H-4,1-benzoxazepin-1-yl]-1-(trideuteriomethyl)quinazolin-2-one] | 7.18 | 7.48
[2H]C([2H])([2H])n1c(=O)nc(N2CCOCc3c(C#CC(C)(C)N)cccc32)c2c(F)cccc21 [Example 175, 4-(6-(3-amino-3-methylbut-1-yn-1-yl)-2,3-dihydrobenzo[e][1,4]oxazepin-1(5H)-yl)-5-fluoro-1-(methyl-d3)quinazolin-2(1H)-one] | 6.92 | 7.67
[2H]C([2H])([2H])n1c(=O)nc(N2CCOCc3c(C#CC(C)(C)NC(=O)C4(C(F)(F)F)CC4)cccc32)c2c(F)cccc21 [Example 176, N-(4-(1-(5-fluoro-1-(methyl-d3)-2-oxo-1,2-dihydroquinazolin-4-yl)-1,2,3,5-tetrahydrobenzo[e][1,4]oxazepin-6-yl)-2-methylbut-3-yn-2-yl)-1-(trifluoromethyl)cyclopropane-1-carboxamide] | 8.62 | 8.27
[2H]C([2H])([2H])n1c(=O)nc(N2CCOCc3c(C#Cc4coc(C)n4)cccc32)c2c(F)cccc21 [Example 177, 5-fluoro-1-(methyl-d3)-4-(6-((2-methyloxazol-4-yl)ethynyl)-2,3-dihydrobenzo[e][1,4]oxazepin-1(5H)-yl)quinazolin-2(1H)-one] | 7.76 | 7.72
[2H]C([2H])([2H])n1c(=O)nc(N2CCOCc3c(C#CC(C)(C)NC(=O)C4(C(F)F)CC4)cccc32)c2c(F)cccc21 [Example 178, 1-(difluoromethyl)-N-(4-(1-(5-fluoro-1-(methyl-d3)-2-oxo-1,2-dihydroquinazolin-4-yl)-1,2,3,5-tetrahydrobenzo[e][1,4]oxazepin-6-yl)-2-methylbut-3-yn-2-yl)cyclopropane-1-carboxamide] | 8.20 | 8.03
[2H]C([2H])([2H])n1c(=O)nc(N2CCOCc3c(C#CC(C)(C)NC(=O)C(C)(C)C(F)F)cccc32)c2c(F)cccc21 [Example 179, 3,3-difluoro-N-(4-(1-(5-fluoro-1-(methyl-d3)-2-oxo-1,2-dihydroquinazolin-4-yl)-1,2,3,5-tetrahydrobenzo[e][1,4]oxazepin-6-yl)-2-methylbut-3-yn-2-yl)-2,2-dimethylpropanamide] | 8.46 | 7.82
[2H]C([2H])([2H])n1c(=O)nc(N2CCOCc3c(C#CC(C)(C)NC(=O)C4(C(C)(F)F)CC4)cccc32)c2c(F)cccc21 [Example 180, 1-(1,1-difluoroethyl)-N-(4-(1-(5-fluoro-1-(methyl-d3)-2-oxo-1,2-dihydroquinazolin-4-yl)-1,2,3,5-tetrahydrobenzo[e][1,4]oxazepin-6-yl)-2-methylbut-3-yn-2-yl)cyclopropane-1-carboxamide] | 8.33 | 8.12

From patent publication US11932634B2 (Gilead Sciences, Inc., priority 2021, dated 2024)
